Data published in patent US12357695B2, “Peptides and nanoparticles for intracellular delivery of molecules” (AADIGEN, LLC, priority 2019, dated 2025).
Square brackets hold non-standard residues; d marks the D form. Ends that are not written are not given here. Aun = NCCCCCCCCCCC(=O)O; βAla = NCCC(=O)O

Key:
mice [1] = assay: In vivo delivery of pGL4 plasmid DNA, intramuscular administration, bioluminescence imaging; details: IM, 2.5 μg pGL4 plasmid
Protocol: FIGS. 7A-7B show the potency of ADGN-peptide variants for in vivo delivery of Luciferase expressing plasmid pGL4 via intramuscular administration in mice. ADGN-peptide/pGL4 luc particles containing 2.5 μg plasmid DNA were formed in sterile water, and then diluted in 5% sucrose. Mice received IV injection of 25 μl ADGN-peptide/pGL4 complexes. Luciferase expression was monitored by bioluminescence imaging after 12 h, 24 h and 48h (A). FIG. 7B show bioluminescence imaging at 24 hr in control and treated groups.
Stable ADGN-peptides/pGL4.11 DNA were evaluated for in vivo delivery of Luciferase mRNA via intravenous and intramuscular administrations. Animals were treated with single dose of pGL4.11 plasmid DNA of 5 μg. via IV and 2.5 μg via intramuscular administration.
For IM administration, mice received 25 μl (2.5 μg of pGL4 plasmid) IV injection of either ADGN-100/PGL4, ADGN-106/PGL4, ADGN-100RI/PGL4, ADGN-100hydro1/PGL4, ADGN-100hydro6/PGL4, ADGN-100 stearyl/PGL4 or ADGN-100/PGL4 complexes containing 10% or 20% of ADGN-100PEG (2 animals per group). As control, mice from group 3 (2 animals per group) received IV injection of 25 μl of naked PGL4 plasmid (2.5 μg).
Luciferase expression was monitored by bioluminescence. Bioluminescence imaging was performed after 12, 24, 48 and 72 hrs. Mice received an i.p. injection of 150 μg/g luciferin for noninvasive bioluminescence imaging (IVIS Kinetic; PerkinElmer, Waltham, MA, USA).

[2] = DLS particle size and level of aggregation of ADGN-peptide/mRNA complexes; type: physicochemical; details: retro inverso modification vs parent peptide
Protocol: Complex formation with mRNA. The following protocols were used for the transfection of 2-5 106 Cells or Cells at confluency of about 70-80% cultured in 24 well plates. ADGN peptide/mRNA particles were prepared at a 20:1 molar ratio of ADGN-Peptide/mRNA. using (0.25 μg) mRNA. Luc mRNA (0.25 μg) was diluted in 20 μl of sterile water (GIBCO) at room temperature. 5 μl Final Peptide Solution was added to obtain a total volume of 20 μl. The volume was adjusted to 50 μl with sterile water and was mixed gently with vortex 1 min low speed and incubated 30 min at room temperature. Then the volume was made up to 100 μl by adding sterile water containing 5% sucrose, and the solution was mixed gently with vortex 1 min low speed and incubate 5 min at 37° C. and then was proceeded to cell transfection.
The ability of the different ADGN-peptides to form stable nanoparticles with mRNA was analyzed. The particle sizes and level of aggregation were measured on DLS NanoZS (Malvern Ltd). The mean size and the polydispersity of the ADGN/mRNA complexes were determined at 25° C. for 3 minute per measurement. In order to remove large particles, ADGN/mRNA complexed were filtered using either PES or PVDF 0.45 μm filters. Data are shown in FIG. 8 and FIG. 9 for a mean of 3 separate experiments.

mice [3] = assay: In vivo delivery of Luciferase mRNA, intramuscular administration, bioluminescence imaging; details: IM, Luc mRNA
Protocol: FIGS. 5A-5B show the potency of ADGN-peptide variants for in vivo delivery of Luciferase mRNA via intramuscular administration in mice. ADGN-peptide/luc mRNA particles containing 2.5 μg mRNA were formed in sterile water, and then diluted in 5% sucrose. Mice received […] injection o 25 μl ADGN-peptide/mRNA complexes. mRNA LUC expression was monitored by bioluminescence imaging after 12 h, 24 h and 48h (A). FIG. 5B show bioluminescence imaging at 24 hr in control and treated groups.
Stable ADGN-peptides/mRNA were evaluated for in vivo delivery of Luciferase mRNA via intravenous and intramuscular administrations. Animals were treated with single dose of 5 moU modified Luc mRNA of 5 μg. 5 moU modified Luc mRNA (5 μg) in sterile water (GIBCO) were mixed with ADGN peptide (sterile water), volume for each sample was adjusted to 100 μl, with sterile water containing 5% Sucrose. Samples were mixed gently with vortex for 1 minute at low speed and incubated for 30 min at room temperature. Samples were filtered on 0.45 μm PES filters prior administration. For IV administration Mice received 100 μl intravenous (IV) injection of either ADGN-106/mRNA, ADGN-100/mRNA, ADGN-106RI/mRNA, ADGN-100-stearyl/mRNA, ADGN-100Hydro1/mRNA, ADGN-100Hydro2 or ADGN/mRNA complexes containing 10% of ADGN-100PEG (3 animals per group). As control, mice from group 3 (2 animals per group) received IV injection of 100 μl of naked 5 moU modified Luc mRNA (5 μg). For IM administration, mice received 25 μl (5 μg mRNA) IV injection of either ADGN-100/mRNA, ADGN-106/mRNA, ADGN-106RI/mRNA or ADGN/mRNA complexes containing 10% or 20% of ADGN-100PEG (2 animals per group). As control, mice from group 3 (2 animals per group) received IV injection of 25 μl of naked 5 moU modified Luc mRNA (5 μg).
mRNA Luc expression was monitored by bioluminescence. Bioluminescence imaging was performed after 12, 24, 48 and 72 hrs. Mice received an i.p. injection of 150 μg/g luciferin for noninvasive bioluminescence imaging (IVIS Kinetic; PerkinElmer, Waltham, MA, USA).

Substance	luciferase expression (mice [1])	ability of the peptide to form stable complex with mRNA [2]	increase of luciferase expression in the muscle / efficiency relative to ADGN-106 (mice [3])	luciferase expression (mice [3])	increase of luciferase expression in the muscle / efficiency relative to ADGN-100 (mice [1])
Ac-GYVS-(G)4-KWRSALWRWRLWRVRSWSR-NH2 (Ac-GYVSGGGGKWRSALWRWRLWRVRSWSR-NH2) [ADGN-100 hydro-2]	no significant expression				
Ac-GYVS-Aun-KWRSALWRWRLWRVRSWSR-NH2 (Ac-GYVS[Aun]KWRSALWRWRLWRVRSWSR-NH2; SMILES CC(=O)NCC(=O)N[C@@H](Cc1ccc(O)cc1)C(=O)N[C@H](C(=O)N[C@@H](CO)C(=O)NCCCCCCCCCCC(=O)N[C@@H](CCCCN)C(=O)N[C@@H](Cc1c[nH]c2ccccc12)C(=O)N[C@@H](CCCNC(=N)N)C(=O)N[C@@H](CO)C(=O)N[C@@H](C)C(=O)N[C@@H](CC(C)C)C(=O)N[C@@H](Cc1c[nH]c2ccccc12)C(=O)N[C@@H](CCCNC(=N)N)C(=O)N[C@@H](Cc1c[nH]c2ccccc12)C(=O)N[C@@H](CCCNC(=N)N)C(=O)N[C@@H](CC(C)C)C(=O)N[C@@H](Cc1c[nH]c2ccccc12)C(=O)N[C@@H](CCCNC(=N)N)C(=O)N[C@H](C(=O)N[C@@H](CCCNC(=N)N)C(=O)N[C@@H](CO)C(=O)N[C@@H](Cc1c[nH]c2ccccc12)C(=O)N[C@@H](CO)C(=O)N[C@@H](CCCNC(=N)N)C(N)=O)C(C)C)C(C)C) [ADGN-100 hydro-6]	mediated Luciferase expression following IM administration				
akwllrwlsrwlrwlarwlr ([dA][dK][dW][dL][dL][dR][dW][dL][dS][dR][dW][dL][dR][dW][dL][dA][dR][dW][dL][dR]; also: retro-inverso) [ADGN-106-RI]		did not modify the ability of the peptide to form stable complex with mRNA	6 fold	mediated Luciferase expression following intramuscular (IM) administration	
rswsrvrwlrwrwgasrwk ([dR][dS][dW][dS][dR][dV][dR][dW][dL][dR][dW][dR][dW]G[dA][dS][dR][dW][dK]; also: retro-inverso) [ADGN-100-RI]	mediated Luciferase expression following IM administration	did not modify the ability of the peptide to form stable complex with mRNA			6 fold
βAKWRSAGWRWRLW RVRSWSR (AKWRSAGWRWRLWRVRSWSR; N-terminal beta-alanine; VARIANT 1 beta-A) [ADGN-100]	mediated Luciferase expression following IM administration			no significant expression	
βALWRALWRLWRSLWRLLWKA ([βAla]LWRALWRLWRSLWRLLWKA) [ADGN-106]	no significant expression			mediated Luciferase expression following intramuscular (IM) administration	
